# Data as given in patent US4931471A, “Amides of paramethoxycinnamic and utilization thereof as solar filters” (priority 1985, dated 1990).
# Legend:
# [1] = UV spectrum (absorption maximum); assay type: physicochemical
# [2] = Degradation in rat skin homogenate (TLC after 12 h); assay type: in vitro ADME
# Procedure: The hypodermis was carefully detached by means of a razor blade. The remaining epidermis and dermis were cut into thin lamellae and placed in a conical flask containing 20 ml of phosphate buffer of pH 8. The lamellae were then ground in a Potter mill with large teeth so as to prevent the proteases from being released from the cell nuclei. The preparation obtained was centrifuged at 25,000 rpm and the supernatant was removed. 10 μmol of the test product were suspended in 4 ml of the homogenate. After 12 h, the solutions were analyzed by TLC.
# When using rat skin homogenates such as those described above, no degradation of the amides according to Examples I and III to XI was observed, whereas the amide of Example II undergoes 30% degradation.
# [3] = system: esterases in the skin and plasma; conditions: loss of UV-B filtering power on the skin; cited from earlier work
# [4] = man; cited from earlier work
Compound,UV spectrum: maximum ([1]; CHCl3) [nm],other results
"COc1ccc(C=CC(=O)N2CCCCC2)cc1 [Example I, N-(4-Methoxycinnamoyl)piperidine]",295,
"COC(=O)[C@H](CCSC)NC(=O)C=Cc1ccc(OC)cc1 [Example II, Methyl ester of N-(4-methoxycinnamoyl)-L-methionine]",309,degradation (in words) [2]: slightly degraded; metabolised at 12 h ([2]; pH 8): 30%
"COC(=O)[C@H](CSC)NC(=O)C=Cc1ccc(OC)cc1 [Example V, Methyl ester of S-methyl-N-(4-methoxycinnamoyl)-L-cysteine]",306,
"COC(=O)[C@H](CSCc1ccccc1)NC(=O)C=Cc1ccc(OC)cc1 [Example VI, Methyl ester of S-benzyl-N-(4-methoxycinnamoyl)-L-cysteine]",310,
"COC(=O)[C@H](Cc1ccc(O)cc1)NC(=O)C=Cc1ccc(OC)cc1 [Example VII, Methyl ester of N-(4-methoxycinnamoyl)-L-tyrosine]",312,
"COC(=O)C=Cc1cn(C(=O)C=Cc2ccc(OC)cc2)cn1 [Example VIII, Methyl ester of (4-methoxycinnamoyl)imidazol-4-ylprop-2-enoic acid (amide of paramethoxycinnamic acid and the methyl ester of urocanic acid)]",,UV spectrum: maximum ([1]; 100° ethanol): 350 nm
"COC(=O)[C@H](CS)NC(=O)C=Cc1ccc(OC)cc1 [III, Methyl ester of N-(4-methoxycinnamoyl)-L-cysteine]",314,
"COC(=O)[C@H](CSSC[C@H](NC(=O)C=Cc1ccc(OC)cc1)C(=O)OC)NC(=O)C=Cc1ccc(OC)cc1 [IV, Dimethyl ester of N,N'-di(4-methoxycinnamoyl)-L-cystine]",309,
CCCCC(CC)COC(=O)C=Cc1ccc(OC)cc1 (stereo not drawn) [Ibis],,hydrolysis under the influence of the esterases in the skin and plasma [3]: hydrolyzes to p-methoxycinnamic acid
"O=C(C=Cc1c[nH]cn1)N1CCCCC1 [X, N-[3-(1H-Imidazol-4-yl)-1-oxoprop-2-enyl]piperidine]",285,
"COC(=O)/C=C/c1cn(C(=O)C=Cc2ccc(OC)cc2)cn1 [XI, Amide of paramethoxycinnamic acid and the methyl ester of trans-urocanic acid]",,absorbing UV-A and UV-B radiation simultaneously ([1]; in words): capable of absorbing UV-A and UV-B radiation simultaneously
O=C(O)/C=C/c1c[nH]cn1 [urocanic acid],,passage into the blood [4]: passage into human blood
Amide of paramethoxycinnamic acid and the methyl ester of oxidized qlutathione [IX],309,
